Where two headings read alike, the source gives them in different places.
Legend:
[1] = biological target: T1, Ba/F3 Bcr-Abl/F359V (Homo sapiens, UniProt P00519, F359V, cells depend on it); assay: CCK-8 assay, Ba/F3 Bcr-Abl/F359V; assay type: cell-based; conditions: mouse, 72 h
T1 construct: fused on or other part: P11274 (Breakpoint cluster region protein)

[2] = biological target: T2, Ba/F3 Bcr-Abl/Y253F (Homo sapiens, UniProt P00519, Y253F, cells depend on it); assay: CCK-8 assay, Ba/F3 Bcr-Abl/Y253F; assay type: cell-based; conditions: mouse, 72 h
T2 construct: fused on or other part: P11274 (Breakpoint cluster region protein)

[3] = system: K-562-R; assay: 3H-Thymidine uptake cell proliferation assay, K-562-R; assay type: cell-based; conditions: Homo sapiens, 72 h incubation, K-562-R (GLEEVEC resistant), read-out: Antiproliferative activity IC50, K-562-R
Protocol: (§1) ^3H-Thymidine uptake assay: ^3H-Thymidine-incorporation is directly proportional to the number of dividing cells in culture.
(§2) Exponentially growing cultures were subjected to different concentrations of test compounds and standard as given below.
(§3) Cells were seeded at a density of 3×10^3 to 5×10^3 per well (in 0.180 mL) in transparent 96 well tissue culture plate (NUNC, USA) and were allowed to incubate at 37° C. in 5% carbon dioxide incubator for 2-6 h. Test compounds were diluted in medium (RPMI1640 with 10% FBS) at various concentrations, and 0.02 mL of 10× stocks were added to each well in triplicate. Plates were incubated at 37° C. in 5% carbon dioxide incubator for 72 h, with an intermittent microscopic observation every 24 h.
(§4) After 72 h incubation, the plate was centrifuged at 1000 rpm for 10 mins in a plate centrifuge. Supernatant was carefully aspirated and ^3H-Thymidine was added to all wells at a concentration of 0.5 μCi/well in 0.1 mL complete medium. Plates were further incubated at 37° C. in 5% carbon dioxide incubator for 6-14 h.
(§5) The filter plate was dried completely at 60° C. for 1 h, or overnight (16 h) at room temperature (25° C.). […] The plate was sealed from the top, read on scintillation counter (TopCount, Packard), and percent inhibition and IC50 in comparison with control values was calculated.

[4] = biological target: T3, Ba/F3 Bcr-Abl/E255V (Homo sapiens, UniProt P00519, E255V, cells depend on it); assay: CCK-8 assay, Ba/F3 Bcr-Abl/E255V; assay type: cell-based; conditions: mouse, 72 h
T3 construct: fused on or other part: P11274 (Breakpoint cluster region protein)

[5] = biological target: T4, Ba/F3 Bcr-Abl/H396P (Homo sapiens, UniProt P00519, H396P, cells depend on it); assay: CCK-8 assay, Ba/F3 Bcr-Abl/H396P; assay type: cell-based; conditions: mouse, 72 h
T4 construct: fused on or other part: P11274 (Breakpoint cluster region protein)

[6] = biological target: T5, Ba/F3 Bcr-Abl/WT (Homo sapiens, UniProt P00519); assay: CCK-8 assay, Ba/F3 Bcr-Abl/WT; assay type: cell-based; conditions: CCK-8, 72 h, imatinib mesylate sensitive; read-out: Inhibitory concentration (IC50), Ba/F3 Bcr-Abl/WT
T5 construct: fused on or other part: P11274 (Breakpoint cluster region protein)
From the text: (§6) The cell lines described in Table 3 were used to test the antiproliferative activity of test compounds.
(§7) Cell Counting Kit-8 (CCK-8) allows very convenient assay by utilizing Dojindo's highly water-soluble tetrazolium salt. CCK-8, being nonradioactive, allows sensitive colorimetric assay for the determination of number of viable cells in cell proliferation and cytotoxicity assays. The amount of the formazan dye generated by dehydrogenases in cells is directly proportional to the number of living cells. Thus, the CCK-8 assay can also be substituted for the H^3-Thymidine incorporation assay.
(§8) Plates were further incubated at 37° C., 5% CO2 incubator for 72 h. 10 μl of the CCK-8 solution was added to each well and plate was incubated for 1-4 h in the incubator. Measured the absorbance at 450 nm using a microplate reader.
(§9) A. The percent inhibition and IC50 were calculated in comparison with control values.

[7] = biological target: T6, Ba/F3 Bcr-Abl/M244V (Homo sapiens, UniProt P00519, M244V, cells depend on it); assay: CCK-8 assay, Ba/F3 Bcr-Abl/M244V; assay type: cell-based; conditions: mouse, 72 h
T6 construct: fused on or other part: P11274 (Breakpoint cluster region protein)

[8] = biological target: T7, 32Dcl^Bcr-Abl T315I (Homo sapiens, UniProt P00519, T315I, cells depend on it); assay: 3H-Thymidine uptake cell proliferation assay, 32Dcl Bcr-Abl T315I; assay type: cell-based, Mouse; conditions: 72 h incubation, read-out: Antiproliferative activity IC50, 32Dcl^Bcr-Abl T315I
T7 construct: Mouse fibroblast with T315I mutated Bcr-Abl; fused on or other part: P11274 (Breakpoint cluster region protein)
Protocol: as §1, §2, §3, §4, §5

[9] = biological target: T8, Ba/F3 Bcr-Abl/Y253H (Homo sapiens, UniProt P00519, Y253H, cells depend on it); assay: CCK-8 assay, Ba/F3 Bcr-Abl/Y253H; assay type: cell-based; conditions: mouse, 72 h
T8 construct: fused on or other part: P11274 (Breakpoint cluster region protein)

[10] = biological target: T9, p210^bcr-abl tyrosine kinase (Homo sapiens, UniProt P00519); assay: Bcr-abl kinase assay: autophosphorylation after immunoprecipitation from treated K-562 cells; assay type: cell-based; conditions: K-562 cells treated at IC50 and 3×IC50 for 24 h
T9 construct: immunoprecipitation of p210^bcr-abl tyrosine kinase from K-562 cell lysate; BCR (natural N-terminal fusion partner of the p210 BCR-ABL oncoprotein); endogenous in cells; host or cells: K-562 (human leukemic cell line); the other entry of the earlier key: BCR (P11274, Breakpoint cluster region protein)
Protocol: To study inhibition of autophosphorylation of Bcr-abl. Study was carried out by immunoprecipitation of p210^bcr-abl tyrosine kinase from K-562 cell lysate, followed by kinase enzyme assay. The reaction mixture was subjected to SDS-PAGE followed by autoradiography.
To check for the inhibition of autophosphorylation of p210^bcr-abl tyrosine kinase by compounds of the present invention, K-562 cells which express wild type Bcr-abl were used. […] Cells were washed with PBS solution and lysed using lysis buffer (CelLytic M Cell Lysis reagent, Sigma Aldrich, USA) for 2-3 h in cold conditions. Protein was estimated by Bradford method (Bradford reagent, Sigma Aldrich, USA). For immunoprecipitation equal amount of protein is taken from all samples. A p210^bcr-abl protein was immunoprecipitated using polyclonal anti-c-abl antibody (Santa Cruz Biotechnologies, USA) followed by incubation at 4° C. overnight with Protein A-Sepharose. […]
Kinase reaction was performed using 0.5 μCi (γ^32P)-adenosine triphosphate per reaction and incubated for 30 minutes at room temperature (25° C.). […] Autophosphorylation reaction products are resolved on SDS-PAGE and detected by autoradiography.

[11] = biological target: T10, Ba/F3 Bcr-Abl/M351T (Homo sapiens, UniProt P00519, M351T, cells depend on it); assay: CCK-8 assay, Ba/F3 Bcr-Abl/M351T; assay type: cell-based; conditions: mouse, 72 h
T10 construct: fused on or other part: P11274 (Breakpoint cluster region protein)

[12] = biological target: T11, Ba/F3 Bcr-Abl/E255K (Homo sapiens, UniProt P00519, E255K, cells depend on it); assay: CCK-8 assay, Ba/F3 Bcr-Abl/E255K; assay type: cell-based; conditions: mouse, 72 h
T11 construct: fused on or other part: P11274 (Breakpoint cluster region protein)

[13] = biological target: Ba/F3 Bcr-Abl/T315I (Homo sapiens, UniProt P00519, T315I, cells depend on it)
From the text: as §6, §7, §8, §9

[14] = biological target: T12, Ba/F3 Bcr-Abl/F317L (Homo sapiens, UniProt P00519, F317L, cells depend on it); assay: CCK-8 assay, Ba/F3 Bcr-Abl/F317L; assay type: cell-based; conditions: mouse, 72 h
T12 construct: fused on or other part: P11274 (Breakpoint cluster region protein)

[15] = biological target: T13, Ba/F3 Bcr-Abl/Q252H (Homo sapiens, UniProt P00519, Q252H, cells depend on it); assay: CCK-8 assay, Ba/F3 Bcr-Abl/Q252H; assay type: cell-based; conditions: mouse, 72 h
T13 construct: fused on or other part: P11274 (Breakpoint cluster region protein)

[16] = biological target: T14, Ba/F3 Bcr-Abl/H396R (Homo sapiens, UniProt P00519, H396R, cells depend on it); assay: CCK-8 assay, Ba/F3 Bcr-Abl/H396R; assay type: cell-based; conditions: mouse, 72 h
T14 construct: fused on or other part: P11274 (Breakpoint cluster region protein)

[17] = system: K-562; assay: 3H-Thymidine uptake cell proliferation assay, K-562; assay type: cell-based; conditions: Homo sapiens, K562, 72 h incubation, read-out: Antiproliferative activity IC50, K-562
Protocol: as §1, §2, §3, §4, §5

[18] = system: K562; assay: CCK-8 cell proliferation and cytotoxicity assay, K562; assay type: cell-based, Human; conditions: Homo sapiens, K562, 72 h; read-out: Inhibitory concentration (IC50), K562

COC(=O)C=Cc1ccc(O)c(O)c1 [Compound 2, 3-(3,4-Dihydroxy-phenyl)-acrylic acid methyl ester]
GI50 [1]: 18.4 µM
GI50 [2]: 17 µM
IC50 [3]: 23 µM
GI50 [4]: 18.9 µM
GI50 [5]: 26.2 µM
GI50 [6]: 7.9 ± 2.1 µM
GI50 [7]: 30.1 µM
GI50 [8]: 35 µM
GI50 [9]: 14.5 µM
Inhibition of autophosphorylation of Bcr-abl (band density, autoradiography) [10]: potent Bcr-abl tyrosine kinase inhibitor
GI50 [11]: 16.1 µM
GI50 [12]: 15 µM
GI50 ([13]; mouse, ba/f3 bcr-abl/t315i, 72 h): 6.3 µM
GI50 ([13]; read-out: Inhibitory concentration (IC50), Ba/F3 Bcr-Abl/T315I, CCK-8, 72 h, imatinib mesylate resistant, Table 4): 3.8 ± 1.9 µM
GI50 [14]: 23.5 µM
GI50 [15]: 15.4 µM
GI50 [16]: 18.8 µM
IC50 [17]: 13.6 ± 2.3 µM
IC50 [18]: 13.3 ± 2.1 µM

— patent publication US20100010002A1, “ANTICANCER USE OF CAFFEIC ACID AND ITS DERIVATIVES” (Piramal Life Sciences Limited, priority 2006, published 2010)
